The text below walks through data of ChEMBL document CHEMBL2169851, “Imidazopyridazinones as novel PDE7 inhibitors: SAR and in vivo studies in Parkinson's disease model” (Bioorg Med Chem Lett, 2012).

A short description of data set [1]: Ratio of drug level in brain to plasma in C57 mouse at 10 mg/kg, ip after 30 mins. Further details: dose 10 mg/kg, route intraperitoneal. The data set is classed as ADME, organism-based. Particulars: read-out: BPR.
Data set [2] in a line: Tmax in C57 mouse at 10 mg/kg, ip. The data set is classed as ADME, organism-based. Particulars: in vivo. Further details: dose 10 mg/kg, route intraperitoneal.
Data set [3] is described as follows: Metabolic stability in human liver microsomes assessed as compound remaining after 60 mins. Particulars: read-out: Stability. The data set is classed as ADME, Microsome.
Data set [4] is described as follows: Drug uptake in C57 mouse brain at 10 mg/kg, ip after 30 mins. It counts as ADME, organism-based. Also noted: dose 10 mg/kg, route intraperitoneal. Particulars: read-out: Drug uptake.
Data set [5] has as its target Dual 3',5'-cyclic-AMP and -GMP phosphodiesterase 11A (Homo sapiens) (UniProt Q9HCR9). In words: Inhibition of cloned human recombinant PDE11A assessed as [3H]cAMP hydrolysis at 10 uM by radiometric assay.
In data set [6] the target is High affinity cAMP-specific and IBMX-insensitive 3',5'-cyclic phosphodiesterase 8A (Homo sapiens) (UniProt O60658). Briefly: Inhibition of cloned human recombinant PDE8A1 assessed as [3H]cAMP hydrolysis at 10 uM by radiometric assay.
High affinity cAMP-specific and IBMX-insensitive 3',5'-cyclic phosphodiesterase 8A (Homo sapiens), sequence (O60658 whole entry): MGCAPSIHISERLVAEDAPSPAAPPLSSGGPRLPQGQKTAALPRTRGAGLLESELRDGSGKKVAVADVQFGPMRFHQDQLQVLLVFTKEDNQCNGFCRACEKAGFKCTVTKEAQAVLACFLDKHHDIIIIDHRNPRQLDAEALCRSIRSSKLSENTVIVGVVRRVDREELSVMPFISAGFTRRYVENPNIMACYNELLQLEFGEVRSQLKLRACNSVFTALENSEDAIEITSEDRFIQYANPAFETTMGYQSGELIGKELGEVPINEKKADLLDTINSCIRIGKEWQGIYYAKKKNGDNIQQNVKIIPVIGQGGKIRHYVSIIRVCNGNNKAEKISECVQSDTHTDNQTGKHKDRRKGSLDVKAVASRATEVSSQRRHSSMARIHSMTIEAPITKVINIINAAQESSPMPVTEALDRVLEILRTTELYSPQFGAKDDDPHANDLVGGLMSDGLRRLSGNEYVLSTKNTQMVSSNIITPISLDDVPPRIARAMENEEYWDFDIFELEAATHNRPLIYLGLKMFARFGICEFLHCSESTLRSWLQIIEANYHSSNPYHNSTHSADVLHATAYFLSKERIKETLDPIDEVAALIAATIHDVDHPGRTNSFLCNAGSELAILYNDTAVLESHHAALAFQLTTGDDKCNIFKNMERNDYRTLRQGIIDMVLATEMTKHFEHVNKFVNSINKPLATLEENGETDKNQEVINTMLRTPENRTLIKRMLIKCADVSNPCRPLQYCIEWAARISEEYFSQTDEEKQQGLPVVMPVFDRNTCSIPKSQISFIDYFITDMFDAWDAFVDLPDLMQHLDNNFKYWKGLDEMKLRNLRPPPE
For data set [7], the target named is T1, High affinity 3',5'-cyclic-AMP phosphodiesterase 7A (Homo sapiens, UniProt Q13946). In words: Inhibition of cloned human recombinant PDE7A assessed as [3H]cAMP hydrolysis by radiometric assay.
T1 sequence (Q13946 whole entry): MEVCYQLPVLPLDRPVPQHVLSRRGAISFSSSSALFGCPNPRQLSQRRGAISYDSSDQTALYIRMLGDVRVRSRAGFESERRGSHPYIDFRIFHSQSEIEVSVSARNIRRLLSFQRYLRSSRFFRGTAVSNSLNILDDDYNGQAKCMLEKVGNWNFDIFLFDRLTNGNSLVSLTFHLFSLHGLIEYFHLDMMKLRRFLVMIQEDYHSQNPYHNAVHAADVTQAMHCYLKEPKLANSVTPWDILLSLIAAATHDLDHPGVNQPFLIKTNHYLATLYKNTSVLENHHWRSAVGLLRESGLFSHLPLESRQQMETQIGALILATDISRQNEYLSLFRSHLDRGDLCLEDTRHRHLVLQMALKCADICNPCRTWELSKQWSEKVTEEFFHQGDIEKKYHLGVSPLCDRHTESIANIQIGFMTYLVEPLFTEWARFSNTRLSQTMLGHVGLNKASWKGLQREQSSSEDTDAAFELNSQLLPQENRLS
Data set [8] is described as follows: Plasma concentration in C57 mouse at 10 mg/kg, ip after 30 mins. The data set is classed as ADME, organism-based. Also noted: dose 10 mg/kg, route intraperitoneal.
Data set [9] deals with cGMP-dependent 3',5'-cyclic phosphodiesterase (Homo sapiens) (UniProt O00408). In words: Inhibition of cloned human recombinant PDE2A assessed as [3H]cAMP hydrolysis at 10 uM by radiometric assay.
The nature of data set [10]: Cmax in C57 mouse at 10 mg/kg, ip. Particulars: in vivo. Further details: dose 10 mg/kg, route intraperitoneal. It counts as ADME, organism-based.
Data set [11] in a line: Metabolic stability in rat liver microsomes assessed as compound remaining after 60 mins. The data set is classed as ADME, Microsome. Particulars: read-out: Stability. In general terms: Microsomes from liver hold many membrane-bound enzymes, among them those of drug oxidation.
Data set [12] deals with T2, 3',5'-cyclic-AMP phosphodiesterase 4D (Homo sapiens, UniProt Q08499). In words: Inhibition of cloned human recombinant PDE4D assessed as [3H]cAMP hydrolysis at 10 uM by radiometric assay.
T2 sequence (Q08499 whole entry): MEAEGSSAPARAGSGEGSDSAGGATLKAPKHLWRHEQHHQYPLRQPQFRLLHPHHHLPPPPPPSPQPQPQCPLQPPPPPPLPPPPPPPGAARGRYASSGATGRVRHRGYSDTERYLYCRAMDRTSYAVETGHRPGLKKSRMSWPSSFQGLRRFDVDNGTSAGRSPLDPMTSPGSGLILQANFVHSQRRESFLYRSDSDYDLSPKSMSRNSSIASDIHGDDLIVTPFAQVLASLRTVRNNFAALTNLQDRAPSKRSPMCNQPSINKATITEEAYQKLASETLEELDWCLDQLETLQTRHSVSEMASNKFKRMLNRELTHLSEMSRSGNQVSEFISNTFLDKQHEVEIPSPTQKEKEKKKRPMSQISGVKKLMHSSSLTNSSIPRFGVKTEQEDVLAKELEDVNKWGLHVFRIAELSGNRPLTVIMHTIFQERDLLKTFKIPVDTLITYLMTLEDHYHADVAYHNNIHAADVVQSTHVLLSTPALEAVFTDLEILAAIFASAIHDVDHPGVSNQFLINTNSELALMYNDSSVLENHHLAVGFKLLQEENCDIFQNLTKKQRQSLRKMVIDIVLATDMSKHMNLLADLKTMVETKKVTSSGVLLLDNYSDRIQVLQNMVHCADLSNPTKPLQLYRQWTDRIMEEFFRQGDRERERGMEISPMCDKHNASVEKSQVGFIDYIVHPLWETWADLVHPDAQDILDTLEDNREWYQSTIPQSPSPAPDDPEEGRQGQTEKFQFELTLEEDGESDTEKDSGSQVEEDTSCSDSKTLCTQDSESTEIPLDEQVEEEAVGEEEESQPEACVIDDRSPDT
The target in data set [13] is T1, High affinity 3',5'-cyclic-AMP phosphodiesterase 7A. Briefly: Inhibition of cloned human recombinant PDE7A assessed as [3H]cAMP hydrolysis at 1 uM by radiometric assay.
Data set [14] has as its target cGMP-specific 3',5'-cyclic phosphodiesterase (Homo sapiens) (UniProt O76074). Briefly: Inhibition of cloned human recombinant PDE5A assessed as [3H]cAMP hydrolysis at 10 uM by radiometric assay.
Data set [15] concerns the target cAMP and cAMP-inhibited cGMP 3',5'-cyclic phosphodiesterase 10A (Homo sapiens) (UniProt Q9Y233). In words: Inhibition of cloned human recombinant PDE10A assessed as [3H]cAMP hydrolysis at 10 uM by radiometric assay.
Data set [16] addresses cGMP-inhibited 3',5'-cyclic phosphodiesterase 3A (Homo sapiens) (UniProt Q14432). In words: Inhibition of cloned human recombinant PDE3A assessed as [3H]cAMP hydrolysis at 10 uM by radiometric assay.
Data set [17] addresses 3',5'-cyclic-AMP phosphodiesterase 7B (Homo sapiens, UniProt Q9NP56). In words: Inhibition of cloned human recombinant PDE7B assessed as [3H]cAMP hydrolysis by radiometric assay.
Data set [18] in a line: Metabolic stability in mouse liver microsomes assessed as compound remaining after 60 mins. It counts as ADME, Microsome. Particulars: read-out: Stability.
A short description of data set [19]: AUC in C57 mouse at 10 mg/kg, ip. The data set is classed as ADME, organism-based. Also noted: dose 10 mg/kg, route intraperitoneal. Particulars: plasma.
The target in data set [20] is Dual specificity calcium/calmodulin-dependent 3',5'-cyclic nucleotide phosphodiesterase 1A (Homo sapiens) (UniProt P54750). In words: Inhibition of cloned human recombinant PDE1A assessed as [3H]cAMP hydrolysis at 10 uM by radiometric assay.
Dual specificity calcium/calmodulin-dependent 3',5'-cyclic nucleotide phosphodiesterase 1A (Homo sapiens), sequence (P54750 whole entry): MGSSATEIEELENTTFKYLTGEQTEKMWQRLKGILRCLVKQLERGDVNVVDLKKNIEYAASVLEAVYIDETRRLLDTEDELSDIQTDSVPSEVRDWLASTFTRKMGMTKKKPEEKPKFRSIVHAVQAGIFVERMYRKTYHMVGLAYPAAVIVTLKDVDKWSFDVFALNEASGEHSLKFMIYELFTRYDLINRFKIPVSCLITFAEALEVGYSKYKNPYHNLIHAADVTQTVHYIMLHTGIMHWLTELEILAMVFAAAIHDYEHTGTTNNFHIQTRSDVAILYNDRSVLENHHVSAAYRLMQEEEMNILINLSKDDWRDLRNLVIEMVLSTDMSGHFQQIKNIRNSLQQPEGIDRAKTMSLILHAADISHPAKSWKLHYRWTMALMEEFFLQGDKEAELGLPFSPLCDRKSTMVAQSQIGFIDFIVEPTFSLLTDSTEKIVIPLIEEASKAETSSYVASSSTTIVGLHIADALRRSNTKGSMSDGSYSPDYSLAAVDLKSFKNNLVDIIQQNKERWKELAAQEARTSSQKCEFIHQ
Data set [21] addresses High affinity cGMP-specific 3',5'-cyclic phosphodiesterase 9A (Homo sapiens) (UniProt O76083). Briefly: Inhibition of cloned human recombinant PDE9A2 assessed as [3H]cAMP hydrolysis at 10 uM by radiometric assay.
For data set [22], the system named is Mus musculus. Briefly: Neurotoxicity in sc dosed C57BL/6 mouse assessed as induction of catalepsy measured at 0.5 to 1 hr. The data set is classed as toxicity, organism-based. Particulars: in vivo.
Data set [23] concerns Mus musculus. In words: Antiparkinsonian activity in C57BL/6 mouse assessed as decrease in MPTP-induced vertical rearing behavior impairment at 15 mg/kg, sc administered 30 mins on day 7 post MPTP challenge. It counts as functional, organism-based. Also noted: dose 15 mg/kg.
For data set [24], the species on record is Homo sapiens. In words: Selectivity ratio of IC50 for cloned human recombinant PDE4D to IC50 for cloned human recombinant PDE7B.
The target in data set [25] is T2, 3',5'-cyclic-AMP phosphodiesterase 4D. Briefly: Inhibition of cloned human recombinant PDE4D assessed as [3H]cAMP hydrolysis by radiometric assay.
The species named for data set [26] is Homo sapiens. Briefly: Selectivity ratio of IC50 for cloned human recombinant PDE4D to IC50 for cloned human recombinant PDE7A.
Data set [27] has as its system Mus musculus. Briefly: Antiparkinsonian activity in C57BL/6 mouse assessed as decrease in MPTP-induced vertical rearing behavior impairment at 12.5 mg/kg, ip administered 30 mins on day 7 post MPTP challenge. It counts as functional, organism-based. Also noted: dose 12.5 mg/kg.

Active and inactive are the calls of the source. The calls are words filed in the database; no cut-off is given here.

Dual 3',5'-cyclic-AMP and -GMP phosphodiesterase 11A (Homo sapiens), sequence (Q9HCR9 whole entry, looked up): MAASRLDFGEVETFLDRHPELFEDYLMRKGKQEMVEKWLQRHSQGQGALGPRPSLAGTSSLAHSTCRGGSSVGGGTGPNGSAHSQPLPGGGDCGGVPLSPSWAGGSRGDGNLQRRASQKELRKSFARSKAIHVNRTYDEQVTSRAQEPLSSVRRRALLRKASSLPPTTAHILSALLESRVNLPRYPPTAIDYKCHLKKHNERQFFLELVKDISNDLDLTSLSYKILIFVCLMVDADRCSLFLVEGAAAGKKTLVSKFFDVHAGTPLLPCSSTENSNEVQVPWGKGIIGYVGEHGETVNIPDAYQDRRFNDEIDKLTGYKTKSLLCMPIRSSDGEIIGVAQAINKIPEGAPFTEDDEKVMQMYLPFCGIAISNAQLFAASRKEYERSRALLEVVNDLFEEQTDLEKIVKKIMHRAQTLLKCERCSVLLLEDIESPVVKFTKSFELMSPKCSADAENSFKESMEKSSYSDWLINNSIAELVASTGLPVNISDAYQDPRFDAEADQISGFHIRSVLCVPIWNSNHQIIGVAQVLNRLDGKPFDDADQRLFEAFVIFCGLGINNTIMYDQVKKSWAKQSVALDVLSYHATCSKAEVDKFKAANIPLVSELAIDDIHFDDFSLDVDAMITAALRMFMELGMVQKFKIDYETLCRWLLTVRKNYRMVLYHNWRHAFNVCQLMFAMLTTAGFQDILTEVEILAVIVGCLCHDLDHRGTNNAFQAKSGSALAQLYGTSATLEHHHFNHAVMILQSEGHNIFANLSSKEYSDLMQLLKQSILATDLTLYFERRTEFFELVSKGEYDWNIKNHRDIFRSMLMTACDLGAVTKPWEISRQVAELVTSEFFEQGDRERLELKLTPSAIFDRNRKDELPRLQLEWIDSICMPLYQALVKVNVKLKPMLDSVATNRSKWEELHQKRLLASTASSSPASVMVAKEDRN
3',5'-cyclic-AMP phosphodiesterase 7B, sequence (Q9NP56 whole entry): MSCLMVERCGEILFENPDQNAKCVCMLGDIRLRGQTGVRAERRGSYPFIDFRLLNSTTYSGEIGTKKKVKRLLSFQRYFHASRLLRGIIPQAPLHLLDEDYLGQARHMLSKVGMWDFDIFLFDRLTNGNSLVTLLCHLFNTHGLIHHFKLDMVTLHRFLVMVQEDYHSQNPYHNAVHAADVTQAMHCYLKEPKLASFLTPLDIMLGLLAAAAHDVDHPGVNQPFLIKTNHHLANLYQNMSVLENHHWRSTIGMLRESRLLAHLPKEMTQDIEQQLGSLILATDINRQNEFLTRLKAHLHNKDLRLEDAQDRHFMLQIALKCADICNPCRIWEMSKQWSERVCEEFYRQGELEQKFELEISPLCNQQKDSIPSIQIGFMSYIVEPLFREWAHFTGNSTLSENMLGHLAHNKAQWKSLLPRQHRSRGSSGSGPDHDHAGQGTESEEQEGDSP
High affinity cGMP-specific 3',5'-cyclic phosphodiesterase 9A (Homo sapiens), sequence (O76083 whole entry): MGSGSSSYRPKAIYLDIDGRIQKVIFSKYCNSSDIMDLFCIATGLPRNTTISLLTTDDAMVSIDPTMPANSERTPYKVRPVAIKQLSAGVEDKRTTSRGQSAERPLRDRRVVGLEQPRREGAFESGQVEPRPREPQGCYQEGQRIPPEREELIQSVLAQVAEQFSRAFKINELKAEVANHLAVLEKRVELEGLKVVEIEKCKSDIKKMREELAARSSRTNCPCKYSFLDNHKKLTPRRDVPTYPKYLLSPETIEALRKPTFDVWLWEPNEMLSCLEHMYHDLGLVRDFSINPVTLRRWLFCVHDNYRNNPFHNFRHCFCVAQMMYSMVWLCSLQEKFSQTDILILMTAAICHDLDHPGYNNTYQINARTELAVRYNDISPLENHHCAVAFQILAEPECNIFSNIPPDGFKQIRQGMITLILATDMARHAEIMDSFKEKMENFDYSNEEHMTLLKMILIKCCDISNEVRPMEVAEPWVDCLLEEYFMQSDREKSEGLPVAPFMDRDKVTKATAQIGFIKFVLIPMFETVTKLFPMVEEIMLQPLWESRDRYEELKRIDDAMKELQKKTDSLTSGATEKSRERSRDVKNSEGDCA

As a reminder, the Tmax is the time from dosing to the highest level. One may read the inhibition as the drop in the measured response relative to a control, in per cent. One may read the IC50 as the concentration needed to halve the response being measured. As usually defined, the Cmax is the maximum level reached in the sampled fluid or tissue. In general, AUC refers to concentration integrated over time. On to `COc1cc(N2CCC(N)CC2)ccc1-c1nc2c(C)nn(C3CCCCC3)c(=O)c2[nH]1`, for which the Kp at 0.5 h in data set [1] was determined as 0.1. In addition, in data set [2], the Tmax was determined as 4 h. For the same compound, the remaining at 1 h in [3] stood at 100%; in [11] it was 100%; in [18], 44%. The concentration at 0.5 h in data set [4] was 46 ng/g; in data set [8] it was 451 ng/mL. Also, the inhibition turned out to be 44% in data set [5]; 6% in data set [6]; 40% in data set [9]; 81% in data set [12]; 96% in data set [13]; 32% in data set [14]. Besides, the inhibition in [15] was found to be 40%; in data set [16], 2%; in data set [20], 16%; in [21], 9%. In addition, the IC50 in data set [7] stood at 27 nM; in [17] it was 11 nM. Moreover, the highest level in data set [10] (Cmax) was 902 ng/mL. The compound also gave an AUC in data set [19] of 2300 ng·h/mL.
Take `O=C(CCCN1CCC(O)(c2ccc(Cl)cc2)CC1)c1ccc(F)cc1` [HALOPERIDOL]: the Activity result in the data set with Mus musculus [22] is listed as “Dose-dependent effect”.
With `N[C@@H](Cc1ccc(O)c(O)c1)C(=O)O`, the result in the data set on Mus musculus [23] was Active.
As to `COc1cc(N2CCCN(C(C)=O)CC2)ccc1-c1nc2c(C)nn(C3CCCCC3)c(=O)c2[nH]1`, the IC50 in data set [7] worked out at 32 nM.
On the same count and under the same terms, for `COc1cc(N2CC[C@H](N)C2)ccc1-c1nc2c(C)nn(C3CCCCC3)c(=O)c2[nH]1` the value was 80 nM.
For the compound `COc1cc(N2CCC(N)CC2)ccc1-c1nc2c(C)nn(Cc3ccccc3)c(=O)c2[nH]1`, in data set [13], the inhibition was determined as 13%.
On to `COc1cc(N2CCC(O)C2)ccc1-c1nc2c(C)nn(C3CCCCC3)c(=O)c2[nH]1` (stereo not given), for which the 50% inhibitory concentration (IC50) in [7] was found to be 71 nM.
Still for that read-out and setting: with `COc1cc(-c2cn[nH]c2)ccc1-c1nc2c(C)nn(C3CCCCC3)c(=O)c2[nH]1` the figure was 45 nM.
`CCCCC(CC)Cn1nc(C)c2nc(-c3ccc(N4CCC(N)CC4)cc3OC)[nH]c2c1=O` (stereo not given): the inhibition in data set [13] was 6%.
Turning to `COc1cc(N2CC(N)C2)ccc1-c1nc2c(C)nn(C3CCCCC3)c(=O)c2[nH]1`, the IC50 in [7] amounted to 73 nM.
As to `COc1cc(N2CCC(N)CC2)ccc1-c1nc2c(C)nn(C3CCCC3)c(=O)c2[nH]1`, the inhibition in data set [13] came to 89%.
Regarding `COc1cc(N2CCC(N)CC2)ccc1-c1nc2c(C)nn(C3CCN(C)CC3)c(=O)c2[nH]1`, the inhibition in [13] was 7%.
Consider `COc1cc(N2CCC(N)CC2)ccc1-c1nc2c(C)nn(C3CCCCCC3)c(=O)c2[nH]1`, for which the 50% inhibitory concentration (IC50) in [7] came to 75 nM. In [13], the inhibition is 92%.
In the case of `COc1cc(N2CCC(O)CC2)ccc1-c1nc2c(C)nn(C3CCCCC3)c(=O)c2[nH]1`, the IC50 in data set [7] amounted to 81 nM.
On the same count and under the same terms, for `COc1cc(N2CCCC(O)CC2)ccc1-c1nc2c(C)nn(C3CCCCC3)c(=O)c2[nH]1` (stereo not given) the value was 33 nM; for `COc1cc(-c2n[nH]c(=O)o2)ccc1-c1nc2c(C)nn(C3CCCCC3)c(=O)c2[nH]1`, 68 nM.
The same measure, in the same setting: for `COc1cc(O[C@@H]2CCNC2)ccc1-c1nc2c(C)nn(C3CCCCC3)c(=O)c2[nH]1` the value was 55 nM; for `COc1cc(C2CC2C(N)=O)ccc1-c1nc2c(C)nn(C3CCCCC3)c(=O)c2[nH]1` (stereo not given), 3 nM; for `COc1cc(N2CCNC(=O)C2)ccc1-c1nc2c(C)nn(C3CCCCC3)c(=O)c2[nH]1`, 18 nM.
Take `COc1cc(N2CCNCC2)ccc1-c1nc2c(C)nn(C3CCCCC3)c(=O)c2[nH]1`: the IC50 in [7] was determined as 104 nM.
As to `COc1cc(N2CCCNCC2)ccc1-c1nc2c(C)nn(C3CCCCC3)c(=O)c2[nH]1`, the Kp at 0.5 h in data set [1] worked out at 0.09. Also, in data set [2], the Tmax turned out to be 0.25 h. The remaining at 1 h in [3] was found to be 90%; in data set [11], 40%; in data set [18] it was 37%. For the same compound, the Ratio IC50 is over 150 in the data set listed under Homo sapiens [24] and over 200 in the data set listed under Homo sapiens [26]. The concentration at 0.5 h in data set [4] came out at 39 ng/g; in data set [8] it was 446 ng/mL. For the same compound, the inhibition in data set [5] amounted to 24%; in [6], 19%; in data set [9] it was 28%; in [12], 90%; in data set [14], 3%; in data set [15], 2%. Further, the inhibition in data set [16] turned out to be 4%; in data set [20], 33%; in data set [21] it was 12%. In addition, the results for the IC50 in [7], in data set [25] and in [17] were 12 nM, 2900 nM and 19 nM, respectively. The highest level in data set [10] (Cmax) was 570 ng/mL. Moreover, the AUC in data set [19] is 1370 ng·h/mL.
For the compound `COc1cc(CCC(N)=O)ccc1-c1nc2c(C)nn(C3CCCCC3)c(=O)c2[nH]1`, in [7], the IC50 is 93 nM.
For the compound `CNC(=O)Nc1ccc(-c2nc3c(C)nn(C4CCCCC4)c(=O)c3[nH]2)c(OC)c1`, the IC50 in data set [7] was 24 nM.
As to `COc1cc(N2CC(O)C2)ccc1-c1nc2c(C)nn(C3CCCCC3)c(=O)c2[nH]1`, the IC50 in data set [7] turned out to be 53 nM.
With `NC(CO)C(=O)NNCc1ccc(O)c(O)c1O` (stereo not given), the result in the data set with Mus musculus [27] was Active.
With `COc1cc(/C=C/C(N)=O)ccc1-c1nc2c(C)nn(C3CCCCC3)c(=O)c2[nH]1`, the IC50 in data set [7] is 89 nM.
On the same count and under the same terms, for `COc1cc(N2CC[C@@H](N)C2)ccc1-c1nc2c(C)nn(C3CCCCC3)c(=O)c2[nH]1` the value was 77 nM.
